From article doi:10.1101/2022.05.18.492512v2 (biorxiv, 2022)
Where a chain is given by its changes, count along the chain named.

Experiments:
ABCG5/G8 [1] = molecular target: T1, ABCG5/G8 (Homo sapiens, UniProt Q9H221+Q9H222); assay: [3H]cholesterol binding, Ni-NTA bead pull-down, scintillation counting
T1 sequence (Q9H222 1-651): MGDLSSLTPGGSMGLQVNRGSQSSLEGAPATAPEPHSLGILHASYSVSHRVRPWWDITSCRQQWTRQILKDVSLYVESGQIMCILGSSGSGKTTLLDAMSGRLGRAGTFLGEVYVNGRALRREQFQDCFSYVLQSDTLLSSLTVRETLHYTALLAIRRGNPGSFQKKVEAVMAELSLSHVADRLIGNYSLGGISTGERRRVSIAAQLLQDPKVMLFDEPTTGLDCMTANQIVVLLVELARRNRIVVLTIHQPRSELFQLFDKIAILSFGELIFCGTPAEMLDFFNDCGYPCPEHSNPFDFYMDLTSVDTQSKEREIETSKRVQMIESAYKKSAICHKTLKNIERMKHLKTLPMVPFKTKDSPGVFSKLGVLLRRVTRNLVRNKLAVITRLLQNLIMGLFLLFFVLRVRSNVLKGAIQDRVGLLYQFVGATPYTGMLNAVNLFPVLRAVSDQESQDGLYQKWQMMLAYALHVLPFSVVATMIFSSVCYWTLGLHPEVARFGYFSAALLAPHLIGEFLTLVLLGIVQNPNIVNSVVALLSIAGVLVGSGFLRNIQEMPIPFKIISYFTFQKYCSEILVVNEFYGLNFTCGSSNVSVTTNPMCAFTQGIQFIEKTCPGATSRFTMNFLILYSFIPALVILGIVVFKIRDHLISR
T1 sequence (Q9H221 1-673): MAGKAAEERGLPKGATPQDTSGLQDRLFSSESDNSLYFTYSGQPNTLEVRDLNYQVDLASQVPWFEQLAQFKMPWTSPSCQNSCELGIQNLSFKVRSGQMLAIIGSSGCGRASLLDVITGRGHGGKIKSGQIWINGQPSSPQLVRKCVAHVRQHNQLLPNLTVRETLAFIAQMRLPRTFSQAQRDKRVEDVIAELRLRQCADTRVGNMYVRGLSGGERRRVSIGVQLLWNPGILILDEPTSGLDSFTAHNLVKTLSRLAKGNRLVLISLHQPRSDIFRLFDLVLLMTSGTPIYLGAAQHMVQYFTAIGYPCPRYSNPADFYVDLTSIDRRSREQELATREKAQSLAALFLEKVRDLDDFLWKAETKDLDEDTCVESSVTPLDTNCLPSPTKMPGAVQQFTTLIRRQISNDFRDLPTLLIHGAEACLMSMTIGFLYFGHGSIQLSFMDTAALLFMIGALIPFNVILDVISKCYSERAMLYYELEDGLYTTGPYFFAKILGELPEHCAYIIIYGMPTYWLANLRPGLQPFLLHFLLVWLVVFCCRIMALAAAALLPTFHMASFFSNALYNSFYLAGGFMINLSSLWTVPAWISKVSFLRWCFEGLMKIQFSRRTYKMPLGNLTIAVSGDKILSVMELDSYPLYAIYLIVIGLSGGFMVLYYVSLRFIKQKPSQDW

ABCG5/G8 [2] = molecular target: T2, ABCG5/G8 (Homo sapiens, UniProt Q9H221+Q9H222, Q9H222:A540F); assay: as above
T2 sequence (Q9H222 1-651 A540F): T1 sequence (Q9H222 1-651) with A540F
T2 sequence (Q9H221 1-673): T1 sequence (Q9H221 1-673)

## CC(C)CCC[C@@H](C)[C@H]1CC[C@H]2[C@@H]3CC=C4C[C@@H](O)CC[C@]4(C)[C@H]3CC[C@]12C [cholesterol]
ABCG5/G8 [1]
  Kd: 1460 ± 280 nM
ABCG5/G8 [2]
  Kd: 1550 ± 10 nM
